# Experimental data: patent US20240293367A1, “METHODS OF TREATING DISORDERS WITH A […]” (Cybin IRL Limited, priority 2023, published 2024)
# Where “and” joins values, the source holds several entries; their conditions need not be identical. Identical values can stand only once. Like-named read-outs stand apart in the source and are kept apart here.
# Columns and labels:
# [1] = VAS ratings of 'Any drug effect' in the Phase I/IIa study; assay type: in vivo, human
# From the text: The visual analogue scale (VAS) is a psychometric response scale that can be used in questionnaires. It is a measurement instrument for subjective characteristics or attitudes that cannot be directly measured. When responding to a VAS item, respondents specify their level of agreement to a statement by indicating a position along a continuous line between two end points, usually a horizontal 100-mm line marked from “not at all,” “definitely not,” or the like, on the left to “extremely,” “definitely so,” or the like, on the right. The Bond and Lader VAS involves the subject indicating (with vertical marks) on sixteen horizontal 100-mm visual analogue scales how he/she feels. From these measurements, three main factors are calculated as described by Bond and Lader: alertness (from nine scores), contentedness (often called mood; from five scores), and calmness (from two scores). The Bowdle VAS and Drug Rating VAS provides the subject with items of the drug rating questionnaire: feel drug, like drug, and dislike drug. The VAS any drug effect involves the subject indicating (with vertical marks) on horizontal 100-mm visual analogue scales with the any drug effects item (“I can feel any drug effect”). In some embodiments, the subject has a maximum VAS score (e.g., Bond and Lader VAS, Bowdle VAS and Drug Rating VAS, and/or VAS any drug effect) of ≥60 mm after treatment. In some embodiments, the subject has a VAS score (e.g., Bond and Lader VAS, Bowdle VAS and Drug Rating VAS, and/or VAS any drug effect) of greater than or equal to 60 mm, 65 mm, 70 mm, 75 mm, 80 mm, 85 mm, 90 mm, or 95 mm, after treatment. In some embodiments, at least 50%, at least 55%, at least 60%, at least 65%, at least 70%, at least 75%, at least 80%, at least 85%, at least 90% of subjects treated with the methods described herein report a maximum VAS score (e.g., Bond and Lader VAS, Bowdle VAS and Drug Rating VAS, and/or VAS any drug effect) of greater than or equal to 60 mm, 65 mm, 70 mm, 75 mm, 80 mm, 85 mm, 90 mm, or 95 mm following treatment. In some embodiments, the subject has a maximum VAS any drug effect score of ≥60 mm after treatment. In some embodiments, the subject has a VAS any drug effect score of greater than or equal to 60 mm, 65 mm, 70 mm, 75 mm, 80 mm, 85 mm, 90 mm, or 95 mm, after treatment. In some embodiments, at least 50%, at least 55%, at least 60%, at least 65%, at least 70%, at least 75%, at least 80% of subjects treated with the methods described herein report a maximum VAS any drug effect score of greater than or equal to 60 mm, 65 mm, 70 mm, 75 mm, 80 mm, 85 mm, 90 mm, or 95 mm following treatment.
# A visual analogue scale will be completed by all participants on each day of dosing (Day 1 and Day 8 or Day 22) and will consist of a 100 mm bipolar line with the far left side of the line marked not at all, and the far right side of the line marked extremely. Participants will be asked “Right now, do you feel any drug effects at all?” and participants in response will make a vertical mark on the line on study dosing days predose and at 0.5, 1, 2, 4, 6, 8 and 12 hours postdose.
# [2] = not given; remark: listed apart in the source
# [3] = oral, equivalent doses, male Beagle dogs
smiles,measurement,setting,value
"[2H]C([2H])([2H])N(C([2H])([2H])[2H])C([2H])([2H])C([2H])([2H])c1c[nH]c2cccc(O)c12 [psilocin-d10, 3-(2-(bis(methyl-d3)amino)ethyl-1,1,2,2-d4)-1H-indol-4-ol]",bioavailability,"Sprague Dawley, rat, in vivo, po",~60%
same,reduction in oral concentration (Cmax) in comparison to psilocin after psilocybin,"oral, Sprague Dawley rats, molar dose-normalised",16%
same,difference in systemic exposure versus psilocin,rats,~30%
same,subjects reporting maximum VAS-Any drug effect readings above 60 mm,"[1]; 8 mg oral, Cohort 2, 4 healthy volunteers",75%
same,Observed Mean Maximum VAS - Any drug effect,"[1]; 8 mg oral, Cohort 2 Day 8, NHV, N = 4",77.2
same,individual VAS-Any drug effect scores of subjects with meaningful scores,"[1]; 8 mg, Cohort 2",100 mm and 97 mm and 89 mm
same,subjects reporting maximum VAS-Any drug effect readings above 60 mm,"[1]; 10 mg oral, Cohort 3, 3 healthy volunteers",66%
same,Observed Mean Maximum VAS - Any drug effect,"[1]; 10 mg oral, Cohort 3 Day 8, NHV, N = 3",78.3
same,individual VAS-Any drug effect scores of subjects with meaningful scores,"[1]; 10 mg, Cohort 3",100 mm
same,Observed Mean Maximum VAS - Any drug effect,"[1]; 12 mg oral, Cohorts 4 and 5 MDD, Day 1 or Day 22, blinded data incl. placebo subjects",80.7 and 80.7^3
same,median maximum VAS-Any drug effect score,"[1]; 12 mg, Cohorts 4 and 5 MDD",100 mm
same,Observed Mean Maximum VAS - Any drug effect,"[1]; 16 mg oral, Cohort 6 MDD, Day 1 or Day 22, blinded data incl. placebo subjects, excluding vomited doses","89.2 and 89.2^2,3"
same,median maximum VAS-Any drug effect score,"[1]; 16 mg, Cohort 6 MDD",100 mm
same,subjects reporting maximum VAS-Any drug effect readings above 60 mm,"[1]; 16 mg, Cohort 6 MDD",79.2%
same,difference in systemic exposure versus psilocin,[2]; dogs,~30%
same,higher concentration (Cmax) compared to psilocin after psilocybin,[2]; [3],31%
same,higher exposure (AUC) compared to psilocin after psilocybin,[2]; [3],38%
same,oral availability,"[2]; oral, female dogs",91.3%
